Results from the supplement of paper PMC10307832.

Compound: Cn1nnc2c(C(N)=O)ncn2c1=O [Temozolomide] + Cc1nc(NC(=O)N2CCC[C@H]2C(N)=O)sc1-c1ccnc(C(C)(C)C(F)(F)F)c1 [Alpelisib] (partner 2 µM)
Experiment: relative viability (nuclei count vs DMSO), 5 days (fraction); higher = more cells survive
Details: first compound 0.2 µM
Method in brief: (§1)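 Relative viability divides the nuclei count in treated wells by that in vehicle wells. Lung cancer cell lines were seeded in 1536-well plates, dosed by pin tool the next day, and fixed and stained after 5 days in one step with final 0.05% Triton X-100, 1% formaldehyde and 1 ug/ml Hoechst. Dosing was a single drug or a fixed anchor-drug dose plus five library-drug doses (not always all listed) in √10 steps, and values are medians of duplicate plates imaged at 4×.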

Cell Line	relative viability
LK-2	0.544
LOU-NH91	0.57
LU99A	0.619
LXF-289	1.06
NCI-H23	0.645
NCI-H358	0.657
NCI-H441	0.881
NCI-H460	0.58
NCI-H596	0.582
NCI-H647	1.43
NCI-H650	1.18
NCI-H727	0.655
NCI-H838	1.1
NCI-H1355	0.834
NCI-H1395	1.15
NCI-H1437	1.03
NCI-H1651	0.966

Cell Line	relative viability
NCI-H1666	0.925
NCI-H1734	0.7
NCI-H1755	0.972
NCI-H1915	1.05
NCI-H1944	0.654
NCI-H1975	0.711
NCI-H1993	0.678
NCI-H2085	1.01
NCI-H2087	1.26
NCI-H2126	0.703
NCI-H2347	1.06
NCI-H2405	0.405
NCI-H3122	0.75
PC-3 [JPC-3]	1.09
PC-14	1.08
RERF-LC-KJ	0.638

Same assay, conditions: first compound 0.6325 µM

Cell Line	relative viability
LK-2	1.07
LOU-NH91	0.726
LU99A	0.49
LXF-289	0.997
NCI-H23	0.73
NCI-H322M	0.81
NCI-H358	0.729
NCI-H441	0.804
NCI-H460	0.526
NCI-H596	0.494
NCI-H647	1.21
NCI-H650	1.19
NCI-H727	0.511
NCI-H838	1.06
NCI-H1355	0.943
NCI-H1395	1.07
NCI-H1437	0.922
NCI-H1651	0.941

Cell Line	relative viability
NCI-H1666	0.951
NCI-H1734	0.638
NCI-H1755	0.952
NCI-H1793	0.714
NCI-H1915	1.02
NCI-H1944	0.808
NCI-H1975	0.712
NCI-H1993	0.734
NCI-H2085	0.927
NCI-H2087	1.05
NCI-H2126	0.753
NCI-H2170	0.796
NCI-H2347	1.1
NCI-H2405	0.819
NCI-H3122	0.776
PC-3 [JPC-3]	0.982
PC-14	0.958
RERF-LC-KJ	0.88

Same assay, conditions: first compound 2 µM

Cell Line	relative viability
LK-2	1.1
LOU-NH91	0.789
LU99A	0.5
LXF-289	1.04
NCI-H23	0.552
NCI-H322M	0.803
NCI-H358	0.912
NCI-H441	0.901
NCI-H460	0.51
NCI-H596	0.567
NCI-H647	1.16
NCI-H650	1.13
NCI-H727	0.533
NCI-H838	1.1
NCI-H1355	0.842
NCI-H1395	1.13
NCI-H1437	0.957
NCI-H1651	1.03

Cell Line	relative viability
NCI-H1666	0.808
NCI-H1734	0.747
NCI-H1755	0.853
NCI-H1793	0.881
NCI-H1915	0.905
NCI-H1944	0.946
NCI-H1975	0.718
NCI-H1993	0.742
NCI-H2085	0.994
NCI-H2087	1.15
NCI-H2126	0.799
NCI-H2170	0.849
NCI-H2347	1.21
NCI-H2405	0.891
NCI-H3122	0.795
PC-3 [JPC-3]	0.979
PC-14	0.95
RERF-LC-KJ	0.923

Same assay, conditions: first compound 6.325 µM

Cell Line	relative viability
LK-2	0.466
LOU-NH91	0.702
LU99A	0.489
LXF-289	0.992
NCI-H23	0.764
NCI-H322M	0.747
NCI-H358	0.833
NCI-H441	0.743
NCI-H460	0.479
NCI-H596	0.48
NCI-H647	0.866
NCI-H650	1.12
NCI-H727	0.675
NCI-H838	0.968
NCI-H1355	0.815
NCI-H1395	1
NCI-H1437	0.953
NCI-H1651	0.93

Cell Line	relative viability
NCI-H1666	0.586
NCI-H1734	0.646
NCI-H1755	0.881
NCI-H1793	0.716
NCI-H1915	0.625
NCI-H1944	0.786
NCI-H1975	0.642
NCI-H1993	0.693
NCI-H2085	1.1
NCI-H2087	1.12
NCI-H2126	0.744
NCI-H2170	0.607
NCI-H2347	1.02
NCI-H2405	0.734
NCI-H3122	0.73
PC-3 [JPC-3]	1.07
PC-14	0.867
RERF-LC-KJ	0.861

Same assay, conditions: first compound 20 µM

Cell Line	relative viability
LK-2	0.391
LOU-NH91	0.47
LU99A	0.56
LXF-289	0.947
NCI-H23	0.734
NCI-H322M	0.609
NCI-H358	0.676
NCI-H441	0.566
NCI-H460	0.461
NCI-H596	0.482
NCI-H647	0.238
NCI-H650	1.06
NCI-H727	0.504
NCI-H838	1.02
NCI-H1355	0.803
NCI-H1395	1.06
NCI-H1437	1.05
NCI-H1651	0.92

Cell Line	relative viability
NCI-H1666	0.499
NCI-H1734	0.659
NCI-H1755	0.59
NCI-H1793	0.585
NCI-H1915	0.335
NCI-H1944	0.624
NCI-H1975	0.676
NCI-H1993	0.64
NCI-H2085	0.953
NCI-H2087	1.11
NCI-H2126	0.752
NCI-H2170	0.4
NCI-H2347	0.989
NCI-H2405	0.738
NCI-H3122	0.663
PC-3 [JPC-3]	0.396
PC-14	0.217
RERF-LC-KJ	0.743

Compound: C[C@@H](C(=O)N[C@@H](C1CCCCC1)C(=O)N2CCC[C@H]2C(=O)N[C@@H]3[C@@H](CC4=CC=CC=C34)OCC#CC#CCO[C@@H]5CC6=CC=CC=C6[C@@H]5NC(=O)[C@@H]7CCCN7C(=O)[C@H](C8CCCCC8)NC(=O)[C@H](C)NC)NC [AZD5582] + NC(=O)Nc1cc(-c2cccc(F)c2)sc1C(=O)N[C@H]1CCCNC1 [AZD7762] (partner 0.2 µM)
Experiment: as above
Details: first compound 0.001581 µM
Method in brief: as §1

Cell Line	relative viability
LK-2	0.249
LOU-NH91	0.715
LU99A	0.317
LXF-289	1.01
NCI-H23	0.163
NCI-H322M	0.53
NCI-H358	0.471
NCI-H441	0.942
NCI-H460	0.516
NCI-H596	1.07
NCI-H647	0.324
NCI-H650	1.05
NCI-H727	0.538
NCI-H838	0.87
NCI-H1355	0.47
NCI-H1395	0.346
NCI-H1437	1.1
NCI-H1651	0.419

Cell Line	relative viability
NCI-H1666	0.774
NCI-H1734	0.502
NCI-H1755	0.438
NCI-H1793	0.254
NCI-H1915	0.657
NCI-H1944	0.316
NCI-H1975	0.709
NCI-H1993	0.694
NCI-H2085	0.987
NCI-H2087	1.21
NCI-H2126	0.981
NCI-H2170	0.813
NCI-H2347	0.724
NCI-H2405	0.87
NCI-H3122	0.899
PC-3 [JPC-3]	0.706
PC-14	0.255
RERF-LC-KJ	0.2

Same assay, conditions: first compound 0.005 µM

Cell Line	relative viability
LK-2	0.537
LOU-NH91	0.833
LU99A	0.349
LXF-289	1.09
NCI-H23	0.172
NCI-H322M	0.598
NCI-H358	0.586
NCI-H441	0.895
NCI-H460	0.628
NCI-H647	0.394
NCI-H650	1.07
NCI-H727	0.744
NCI-H838	0.903
NCI-H1355	0.667
NCI-H1395	0.376
NCI-H1437	1.14
NCI-H1651	0.456
NCI-H1666	0.85

Cell Line	relative viability
NCI-H1734	0.498
NCI-H1755	0.472
NCI-H1793	0.795
NCI-H1915	0.672
NCI-H1944	0.523
NCI-H1975	0.932
NCI-H1993	0.867
NCI-H2085	1.02
NCI-H2087	1.27
NCI-H2126	0.933
NCI-H2170	0.884
NCI-H2347	0.558
NCI-H2405	0.878
NCI-H3122	0.988
PC-3 [JPC-3]	0.617
PC-14	0.247
RERF-LC-KJ	0.414

Same assay, conditions: first compound 0.01581 µM

Cell Line	relative viability
LOU-NH91	0.704
LU99A	0.313
LXF-289	0.963
NCI-H23	0.177
NCI-H322M	0.504
NCI-H358	0.697
NCI-H441	1.02
NCI-H460	0.562
NCI-H596	1.11
NCI-H647	0.336
NCI-H650	0.643
NCI-H727	0.651
NCI-H838	0.81
NCI-H1355	0.643
NCI-H1437	1.09
NCI-H1651	0.398
NCI-H1666	0.737

Cell Line	relative viability
NCI-H1734	0.584
NCI-H1755	0.291
NCI-H1793	0.277
NCI-H1915	0.673
NCI-H1944	0.475
NCI-H1975	0.667
NCI-H1993	0.7
NCI-H2085	0.855
NCI-H2087	1.17
NCI-H2126	0.896
NCI-H2170	0.88
NCI-H2347	0.666
NCI-H2405	0.674
NCI-H3122	1.01
PC-3 [JPC-3]	0.73
PC-14	0.294
RERF-LC-KJ	0.855

Same assay, conditions: first compound 0.05 µM

Cell Line	relative viability
LK-2	0.338
LOU-NH91	0.742
LU99A	0.337
LXF-289	1.12
NCI-H23	0.227
NCI-H322M	0.6
NCI-H358	0.506
NCI-H441	0.867
NCI-H460	0.639
NCI-H596	0.38
NCI-H647	0.447
NCI-H650	0.788
NCI-H727	0.833
NCI-H838	1.01
